Values quoted from earlier work, collected in PMC12281572.
Where “and” joins values, the source holds several entries; their conditions need not be identical. Identical values can stand only once.

Assay: FTIR, 4-fluorophenol as donor (the pK_BHX database, per the paper)
Conditions: CCl4; 25 C

Row | Structure (SMILES) | pK_BHX (log10 Kf of the 1:1 H-bond complex with 4-fluorophenol, by FTIR)
1 | CCN1C(=O)C=CC1=O | 0.68 log units
2 | C1CCNC1 | 2.59 log units
3 | N#CN1CCCCC1 | 1.58 log units
4 | CC(C)(C)OC(C)(C)C | 0.75 log units
5 | Cc1ccc(C)c(C)c1C | -0.14 log units
6 | Cc1ccc(C)cc1 | -0.29 log units
7 | CC(=O)c1ccc(N=CN(C)C)cc1 | 1.7 log units and 1.52 log units
8 | CC(C)(C)c1cccc(C(C)(C)C)n1 | -0.54 log units
9 | CN(C)c1cccc2cccc(N(C)C)c12 | -0.24 log units
10 | c1ccc(CNCc2ccccc2)cc1 | 1.34 log units
11 | C1=CCNCC1 | 2.16 log units
12 | COc1ccc(C(=S)N(C)C)cc1 | 1.16 log units
13 | CN=C(N(C)C)N(C)C | 3.16 log units
14 | COc1ccncc1 | 2.13 log units
15 | CN(C)C=NC(C)(C)C | 2.41 log units
16 | CN(C)C(=O)N(c1ccccc1)c1ccccc1 | 2.08 log units
17 | CC(=Nc1ccccc1)Nc1ccc(C)cc1 | 1.85 log units
18 | C1=COCCC1 | 0.41 log units
19 | CN(C)C(=O)C(C)(C)C | 2.1 log units
20 | CC(=S)N(C)C | 1.22 log units
21 | CN1CCCCC1 | 2.11 log units
22 | CNC(C)=S | 1.14 log units
23 | C1COCO1 | 0.45 log units
24 | O=S(c1ccccc1)c1ccccc1 | 2.04 log units
25 | c1ccc2c(c1)CCCN2 | 0.7 log units

Row | Structure (SMILES) | pK_BHX (log10 Kf of the 1:1 H-bond complex with 4-fluorophenol, by FTIR)
26 | c1ccc2nc3ccccc3cc2c1 | 1.95 log units
27 | CC(C)(C)C(=O)C(C)(C)C | 0.96 log units
28 | CCOCCOCC | 1.09 log units
29 | Cc1cccc(C)c1[N+](=O)[O-] | 0.29 log units
30 | CN(C)c1ccncc1 | 2.8 log units
31 | CN1C(CC(=O)c2ccccc2)CCCC1CC(O)c1ccccc1 (stereo not drawn) | 2.11 log units and 1.94 log units
32 | CCCCCC#N | 0.89 log units
33 | C1CCSC1 | 0.32 log units
34 | CN(C)C | 2.13 log units
35 | CC(=O)c1cccc([N+](=O)[O-])c1 | 0.18 log units
36 | CCO | 1.02 log units
37 | c1cnc2c(c1)ccc1cccnc12 | 3.1 log units
38 | Fc1cccc(C2CCCN2)c1 (stereo not drawn) | 1.65 log units
39 | N#Cc1ccc(F)cc1 | 0.72 log units
40 | Cc1cc(C)c(C)cc1C | -0.15 log units
41 | O=C1CCCC1 | 1.27 log units
42 | CCC(C)=O | 1.22 log units
43 | CC(C)(C)[N+](=O)[O-] | 0.42 log units
44 | CC(=O)c1ccccc1 | 1.11 log units
45 | Cc1ccc(N(C)C)cc1 | 0.69 log units
46 | CN(C)C(=O)c1ccc([N+](=O)[O-])cc1 | 1.9 log units
47 | [O-][n+]1ccc(Cl)cc1 | 2.44 log units
48 | CC12CCC(CC1=N[N+](=O)[O-])C2(C)C (stereo not drawn) | 0.34 log units
49 | O=Cc1ccc(Cl)cc1 | 0.63 log units
50 | NCCCCCCN | 2.21 log units

Second part, the compound after the results:

Row | pK_BHX (log10 Kf of the 1:1 H-bond complex with 4-fluorophenol, by FTIR) | Structure (SMILES)
51 | 1.72 log units | NC1CC1
52 | 0.73 log units | CCSC(=O)OC
53 | 1.56 log units | C#CCN
54 | 2.43 log units | CCN(CC)C(=O)N(CC)CC
55 | 0.23 log units | Cn1cccc1
56 | 1.37 log units | Ic1cccnc1
57 | 1.1 log units | CN(C)C=NC(=S)SCc1ccccc1
58 | 3.46 log units | Cc1cnc2c(ccc3c(C)c(C)cnc32)c1C
59 | 1.08 log units | CCOC(=O)CC
60 | 1.54 log units | Clc1ccncc1
61 | 2.65 log units | CCCCS(=O)CCCC
62 | 1.65 log units | C=Cc1ccccn1
63 | 0.58 log units | COCOC
64 | 1.65 log units | CC(=Nc1ccccc1)N(C)c1ccccc1
65 | 2.31 log units | NCCCN
66 | 0.26 log units | COC(OC)(OC)OC
67 | 1.29 log units | Cc1cnc(C)cn1
68 | 1.93 log units | c1ccc(C2CCCN2)cc1 (stereo not drawn)
69 | 1.22 log units | CCCCS(=O)(=O)CCCC
70 | 0.17 log units | CN(C)c1ccc(Br)cc1
71 | 0.01 log units | N#Cc1c(F)c(F)c(F)c(F)c1F
72 | 2.46 log units | CN1CN(C)C1=O

Row | pK_BHX (log10 Kf of the 1:1 H-bond complex with 4-fluorophenol, by FTIR) | Structure (SMILES)
73 | -0.28 log units | CC(C)(C)Cl
74 | 1.19 log units | CC(=Nc1ccc(Br)cc1)N(C)c1ccc(Br)cc1
75 | 1.0 log units | N#CC12CC3CC(CC(C3)C1)C2
76 | 0.78 log units | COc1cc(C#N)cc(OC)c1
77 | 1.99 log units | CN=C(c1ccc([N+](=O)[O-])cc1)N(C)C
78 | -0.1 log units | CC(C)S
79 | 0.82 log units | CC(=O)c1cccc(Cl)c1
80 | 0.73 log units | N#Cc1ccc(Br)cc1
81 | 0.87 log units | C(=Nc1ccccc1)c1ccccc1
82 | 2.22 log units | CCC(=O)N(C1CCCCC1)C1CCCCC1
83 | 1.8 log units | CN(C)C=Nc1ccc(F)cc1
84 | 1.0 log units | O=C1CCC1
85 | -0.18 log units | CC(C)c1cc(C(C)C)cc(C(C)C)c1
86 | 0.31 log units | FC12CC3CC(CC(C3)C1)C2
87 | 2.01 log units | CC(=Nc1ccc(C)cc1)Nc1ccc(C)cc1
88 | 1.09 log units | CCOC(=O)C(C)C
89 | 2.12 log units | CN(C)C=NCc1ccc(Cl)cc1
90 | 2.27 log units | Cc1ccc(C(=O)N(C)C)cc1
91 | 1.32 log units | CN1CCN(C)C1=S
92 | 2.19 log units | CN1CCCC1
93 | 0.86 log units | OCc1ccccc1
94 | 2.1 log units | CN(C)C=NCc1cccc(Cl)c1

Row | pK_BHX (log10 Kf of the 1:1 H-bond complex with 4-fluorophenol, by FTIR) | Structure (SMILES)
95 | 1.17 log units | CCN(CC)S(=O)(=O)N(CC)CC
96 | -0.32 log units | IC1CCCCC1
97 | 0.37 log units | CC(C)c1cccc(C(C)C)c1N
98 | 1.27 log units | COc1ccc(C(=O)c2ccccc2)cc1
99 | 2.3 log units | O=c1c(-c2ccccc2)c1-c1ccccc1
100 | 1.41 log units | COc1cccc(N=C(c2ccccc2)N(C)c2ccccc2)c1
101 | 1.83 log units | CCOC(=O)N(C)C
102 | 2.11 log units | CCCCNCCCC
103 | 0.89 log units | CN(C)S(=O)(=O)c1ccccc1
104 | 2.43 log units | CN(C)C=NN(C)C
105 | 2.36 log units | CCC(=O)N(C)C
106 | 1.6 log units | C#CCN(C)C
107 | 2.47 log units | CC(=O)N(C(C)C)C(C)C
108 | 2.24 log units | CC(C)N(C=O)C(C)C
109 | 1.05 log units | O=[N+]([O-])c1cc[n+]([O-])cc1
110 | 1.43 log units | CC1(C)CCC(C)(C)O1
111 | 1.38 log units | CC(=Nc1ccccc1)N(C)c1ccc(Br)cc1
112 | 1.04 log units | CCCCCCCCO
113 | -0.26 log units | Cc1ccc2c(c1)CN1CN2Cc2cc(C)ccc21
114 | 2.19 log units | CN=C(c1ccc(Br)cc1)N(C)C
